# Like-named read-outs stand apart in the source and are kept apart here.
# Key:
# [1] = test system: CREB (GAL4-CREB fusion, luciferase reporter); test: GAL4-CREB / GAL4-luciferase reporter in NG108-15 cells; type: cell-based; details: ethanol exposure
# Protocol: Cells are cultured as described in Dohrman et al., Proc Natl Acad Sci USA (1996) 93:10217-10221, and are transfected using Effectene (Qiagene) as described by the manufacturers. […] Luciferase activity is measured using Luciferase Assay System (Promega) and normalized to β-galactosidase activity.
# NG108-15 cells are co-transfected with a GAL4-CREB fusion construct and with a second construct containing the DNA binding site of GAL4 fused to luciferase as a reporter gene. […] The ethanol-induced increase in luciferase activity induced was inhibited by Rp-cAMPS but not by the CaMK and PKC inhibitors KN-62 and GF, respectively (FIGS. 15 and 16B).
# ε-PKC [2] = test: Translocation of ε-PKC in NG108-15 and CHO cells expressing the applicable receptor; type: cell-based
# Description: (§1) To determine whether addictive drugs other than ethanol would cause translocation of some proteins, we examine the effects of various receptor agonists and antagonists on ε-PKC δ-PKC or PKA Cα translocation in NG108-15 and CHO cells expressing the applicable receptor. […] Adenosine is also implicated in some behavioral effects of ethanol.
# (§2) The mechanisms underlying ethanol- and dopamine-mediated translocation of ε-PKC and δ-PKC were studied by altering the activity of various molecules that might be in the pathways leading to translocation.
# [3] = test system: Ethanol-indicative proteins in lymphocytes; details: Lymphocyte; ethanol-exposed; EUC origin Cytoplasm
# Description: (§3) The particular protein and cellular subregion(s) selected for examination can vary depending on the cell type to be used in a particular method. Cells used in the methods of the invention are of a cell type in which the selected protein is predominantly present in a different amount in a particular cellular subregion of ethanol-exposed cells compared to ethanol-unexposed cells. […] One of skill in the art can readily determine the intracellular distribution of other ethanol indicative proteins by staining ethanol-exposed and ethanol-unexposed cells of various cell types with stains (e.g., antibodies) specific for such proteins.
# [4] = test system: Ethanol-indicative proteins in CHO cells
# Description: as §3
# [5] = test system: Ethanol-indicative proteins in NG108 cells; details: ethanol 10 minutes or 12-48 hours
# Description: as §3
# [6] = test system: Ethanol-indicative proteins in Purkinje cells; details: Purkinje cells in brain section; ethanol 72 hr exposure; EUC origin Cytoplasm
# Description: as §3
# PKCδ-GFP = details: +100 mM EtOH/30 min; for Subcellular Localization of PKCδ-GFP: unstimulated: Golgi Apparatus
# δ-PKC [7] = test: Translocation of δ-PKC in NG108-15 and CHO cells expressing the applicable receptor; type: cell-based
# Description: as §1, §2
# GFP-RIIβ = details: +100 mM EtOH 30 min, unstimulated: Golgi Apparatus
# ε-PKC [8] = type: cell-based; details: NG 108-15 or CHO cells; Ethanol 200 mM, 30 min; no compound: Perinucleus
# Protocol: NG 108-15 or CHO cells were pre-incubated in the presence or absence of the indicated inhibitor for 30 min. (except for GF which was pre-incubated for 1 hour), then further incubated in the absence or presence of 200 mM ethanol for 30 min.
# [9] = test system: CRE-regulated luciferase expression; test: CRE-luciferase reporter in NG108-15 cells; type: cell-based; details: NG108-15 cells; for increase in luciferase activity above control: 200 mM ethanol
# Protocol: Luciferase is used as a reporter gene in a transient expression system to identify substances that alter the effects of ethanol on CRE-regulated gene expression. Cells are cultured as described in Dohrman et al., Proc Natl Acad Sci USA (1996) 93:10217-10221, and are transfected using Effectene (Qiagene) as described by the manufacturers. Twenty-four hours after transfection the cells are treated with 200 mM ethanol for 30 min. to 36 hr. Luciferase activity is measured using Luciferase Assay System (Promega) and normalized to β-galactosidase activity.
# (§4) NG108-15 cells were co-transfected with a fusion construct containing the cAMP response element (CRE) fused to luciferase as a reporter gene (Stratagene).
# Since the ERK/MAPK pathway may regulate CREB phosphorylation and CRE-mediated gene expression, NG108-15 cells having the luciferase construct were co-incubated with 200 mM ethanol and a MEK inhibitor (PD98059 (2 nM, Calbiochem, San Diego, Calif.) or U0126 (1 μM, Calbiochem, San Diego, Calif.)) or a dominant negative MEK construct (DN-MEK, Dr. R. Seger) in which Lys-97 was replaced by alanine.
# as §4
# δ-PKC [10] = type: cell-based; details: NG108-15 cells
# Protocol: (§5) Naive NG108-15 cells were, therefore, incubated in for ten (10) min. in 100 nM PMA, to then determine localization of δ-PKC and ε-PKC.
# ε-PKC [11] = type: cell-based; details: NG108-15 cells; for ε-PKC (% cells) Cytoplasmic staining / ε-PKC (% cells) Perinuclear staining: EtOH exposure, n = 5; for ε-PKC (% cells) Cytoplasmic staining: control 5 ± 2; for ε-PKC (% cells) Perinuclear staining: control 95 ± 2
# Protocol: as §5
# GFP-Cα = type: cell-based
# PKA Cα [12] = type: cell-based
# Description: as §1
# PKA Cα [13] = test: PKA Cα translocation in primary cultures of hippocampal neurons
# CREB phosphorylation = CREB phosphorylation measured with antibody specific for phosphorylated CREB; type: cell-based
# [14] = test system: CRE-mediated gene expression; test: CRE-luciferase reporter assay in NG108-15/D2 cells
# Protocol: Cells were transiently transfected with a CRE-luciferase reporter construct to measure gene expression via endogenous CRE-binding protein (CREB).
# NG108-15/D2 cells were plated at 1×10^6 cells/100 mm plate, grown in defined medium for 3 days, and then transfected with 10 μg of CRE-luciferase construct using the LipofectAMINE reagent (GIBCOL) as recommended by the manufacturer. Cells were cultured for 24 h post transfection before being seeded into 12-well plates. […] Cells were then washed with PBS and cultured for a total of 5 h. Cell extracts were prepared and luciferase activity measured with a luciferase assay system (Promega, Madison, Wis.), using a Rosys Anthos Lucy2 microplate luminometer (Anthos Labtec Instruments, Austria). Results are expressed as percent increase over control. Data represent three or more separate experiments from triplet wells. Luciferase activities were normalized for transfection efficiency determined in cells transfected in parallel with pCMVβgalactosidase. β-galactosidase activity was measured using a kit from Strategene (La Jolla, Calif.).
# PKA Cα [15] = test: PKA Cα translocation in NG108-15/D2 cells (immunocytochemistry, cell fractionation/western)
# [16] = ethanol 10′ exposure, EUC origin Perinucleus
smiles,measurement,setting,value
"CCO [Ethanol, ethanol]",increase of expression of luciferase (GAL4-CREB / GAL4-luciferase),[1],approximately 2 fold
same,Predominant Localization of ε-PKC (agent alone),"ε-PKC [2]; NG108-15 cells expressing the applicable receptor, 200 mM Ethanol, 50 nM NPA, 1 μM D-ala-D-leu-enkephalin, 2 μM R(+) methanindamide, 20 μM Carbachol, 10^−5 M UK14304, 20 nM CCPA, 100 nM CGS-21680 HCl, None: Perinucleus",Cytoplasm
same,"Cellular subregion in which the protein is predominantly present, EEC (Destination): δ-PKC",[3],Cytoplasm
same,"Cellular subregion in which the protein is predominantly present, EEC (Destination): ε-PKC",[3],Cytoplasm
same,"Cellular subregion in which the protein is predominantly present, EEC (Destination): RACK 2 (β′COP)",[4]; [16],Cytoplasm
same,"Cellular subregion in which the protein is predominantly present, EEC (Destination): ε-PKC",[4]; [16],Cytoplasm
same,"Cellular subregion in which the protein is predominantly present, EEC (Destination): δ-PKC","[4]; ethanol 10 minutes or 12-48 hours, EUC origin Golgi",Perinucleus and nucleus
same,"Cellular subregion in which the protein is predominantly present, EEC (Destination): RIIβ",[5]; EUC origin Golgi,Nucleus
same,"Cellular subregion in which the protein is predominantly present, EEC (Destination): δ-PKC",[5]; EUC origin Golgi,Perinucleus and nucleus
same,"Cellular subregion in which the protein is predominantly present, EEC (Destination): Protein Phosphatase I and IIB",[5]; EUC origin Nucleus,Cytoplasm
same,"Cellular subregion in which the protein is predominantly present, EEC (Destination): RACK 2 (β′COP)",[5]; EUC origin Perinucleus,Cytoplasm
same,"Cellular subregion in which the protein is predominantly present, EEC (Destination): ε-PKC",[5]; EUC origin Perinucleus,Cytoplasm
same,"Cellular subregion in which the protein is predominantly present, EEC (Destination): ε-PKC",[6],Not detectable
same,Subcellular Localization of PKCδ-GFP,PKCδ-GFP; 1° Glia,Golgi Apparatus
same,cells showing the stated localization of PKCδ-GFP,PKCδ-GFP; NG108-15/D2R,[>50% cells]
same,Subcellular Localization of PKCδ-GFP,PKCδ-GFP; NG108-15/D2R,Perinucleus/
same,Predominant Localization of δ-PKC (agent alone),"δ-PKC [7]; 200 mM Ethanol or 50 nM NPA, None: Golgi",Perinucleus &
same,"Translocation of δ PKC and δ PKC, agent alone","δ-PKC [7]; D2-receptor-expressing NG108-15 and CHO cells, 10^−9 M NPA or 25 mM ethanol alone",neither agent alone caused translocation
same,Subcellular Localization of GFP-RIIβ,GFP-RIIβ; 1° Glia,Golgi Apparatus
same,Subcellular Localization of GFP-RIIβ,GFP-RIIβ; 1° Neurons,Golgi Apparatus
same,Subcellular Localization of GFP-RIIβ,GFP-RIIβ; NG108-15/D2R,Golgi Apparatus
same,Predominant ε-PKC Localization,ε-PKC [8],Cytoplasm
same,increase in luciferase activity,"[9]; 50 mM ethanol, 14-hour exposure",about 25%
same,increase in luciferase activity above control,[9]; 4 hour exposure,29±6%
same,increase in luciferase activity above control,[9]; 14 hours of exposure,79±4%
same,increase of expression of luciferase (CRE-luciferase),[9]; ethanol exposure,more than 2 fold
same,ethanol-induced altered localization of δ-PKC,"δ-PKC [10]; 25 mM ethanol, 4 days",also observed
same,δ-PKC (% cells) Golgi Staining,"δ-PKC [10]; 200 mM EtOH 48 hours, n = 5, control 74 ± 7",2 ± 2 % cells
same,localization of δ-PKC,"δ-PKC [10]; 200 mM EtOH, 48 hours",localized to the perinucleus and nucleus and absent from the Golgi
same,ethanol-induced altered localization of ε-PKC,"ε-PKC [11]; 25 mM ethanol, 4 days",also observed
same,ε-PKC (% cells) Cytoplasmic staining,ε-PKC [11]; listed as EtOH,94 ± 2 % cells
same,ε-PKC (% cells) Cytoplasmic staining,ε-PKC [11]; listed as ethanol,more than 90 % cells
same,ε-PKC (% cells) Perinuclear staining,ε-PKC [11]; listed as EtOH,94 ± 3 % cells
same,ε-PKC (% cells) Perinuclear staining,ε-PKC [11]; listed as ethanol,more than 90 % cells
same,Subcellular localization of GFP-Cα,"GFP-Cα; 1° Glia (rat hippocampus culture), +100 mM EtOH/30 min or 50 nM NPA/30 min, unstimulated: Golgi Apparatus",Nucleus
same,cells showing the stated localization of GFP-Cα,"GFP-Cα; 1° Glia, +100 mM EtOH/30 min or 50 nM NPA/30 min",[<20% cells]
same,Subcellular localization of GFP-Cα,"GFP-Cα; 1° Neurons (rat hippocampus culture), +100 mM EtOH/30 min, unstimulated: Golgi Apparatus",Nucleus
same,cells showing the stated localization of GFP-Cα,"GFP-Cα; 1° Neurons, +100 mM EtOH/30 min",[>50% cells]
same,cells showing the stated localization of GFP-Cα,"GFP-Cα; NG108-15/D2R, +100 mM EtOH/30 min or 50 nM NPA/30 min",[>50% cells]
same,Subcellular localization of GFP-Cα,"GFP-Cα; NG108-15/D2R, +100 mM EtOH/30 min or 50 nM NPA/30 min, unstimulated: Golgi Apparatus",Nucleus
"CCCN1CCc2cccc3c2[C@H]1Cc1ccc(O)c(O)c1-3 [NPA, R(−)-10,11-dihydroxy-N-n-propylnorapomorphine]",Predominant Localization of PKA Cα (agent alone),PKA Cα [12],Nucleus &
same,"translocation of PKA-Cα, agent alone",PKA Cα [12],did not cause any perceptible translocation
same,"translocation of PKA-Cα, co-incubation of ethanol and NPA",PKA Cα [12],maximal translocation
same,Predominant Localization of ε-PKC (agent alone),ε-PKC [2],Cytoplasm
same,PKA Cα localization after agonist or ethanol,PKA Cα [13],"PKA Cα translocation to the cytoplasm, neurites and nucleus"
same,"PKA Cα translocation, subthreshold NPA and ethanol together",PKA Cα [13],Synergy of PKA Cα translocation occurs
same,"levels of CREB phosphorylation, co-incubation of ethanol and NPA",CREB phosphorylation,synergistic interactions
same,"CRE-mediated luciferase activity, subthreshold NPA and ethanol together",[14],striking synergistic increase
same,luciferase activity (CRE-luciferase),[14],increases luciferase activity to the same extent as forskolin
same,Predominant Localization of δ-PKC (agent alone),δ-PKC [7],Perinucleus &
same,"Translocation of δ PKC and δ PKC, agent alone",δ-PKC [7],neither agent alone caused translocation
same,"Translocation of δ PKC and δ PKC, co-incubation of NPA and ethanol",δ-PKC [7],induced
same,PKA Cα in subcellular fractions (Western blot),PKA Cα [15],translocation of PKA Cα from the membrane fraction to the nucleus and cytoplasm
same,PKA Cα localization after agonist or ethanol (immunostaining),PKA Cα [15],translocation of PKA Cα from the Golgi into the cytoplasm and nucleus
same,"PKA Cα translocation, subthreshold NPA and ethanol together",PKA Cα [15],striking synergistic increase
same,"PKA translocation at subthreshold concentration, agent alone",PKA Cα [15],did not cause PKA translocation
same,time at which NPA-induced PKA Cα translocation reaches a maximum,PKA Cα [15],10 min
same,Km,PKA Cα [15]; read-out: Km of NPA-induced PKA Cα translocation (function of NPA concentration),1.6 nM
same,Subcellular localization of GFP-Cα,GFP-Cα,Nucleus
same,cells showing the stated localization of GFP-Cα,GFP-Cα,[>50% cells]

# Reference: US20090137662A1, “SYNERGY OF DOPAMINE D2 AND ADENOSINE A2 RECEPTORS ACTIVATES PKA SIGNALING VIA BETA/GAMMA DIMERS” (The Regents of the University of California, priority 2002, published 2009)
